# Assay results as given in patent publication EP3394284B1, “ENZYMATIC METHOD FOR THE EVALUATION OF XYLOSE” (Venter Pharma, S.L, priority 2015, dated 2017).
# T1: XylB-wt2 (Caulobacter vibrioides, UniProt B8H1Z0)
# T1 construct: made in house; host or cells: E. coli BL21(DE3)
# T1 sequence (B8H1Z0 1-248): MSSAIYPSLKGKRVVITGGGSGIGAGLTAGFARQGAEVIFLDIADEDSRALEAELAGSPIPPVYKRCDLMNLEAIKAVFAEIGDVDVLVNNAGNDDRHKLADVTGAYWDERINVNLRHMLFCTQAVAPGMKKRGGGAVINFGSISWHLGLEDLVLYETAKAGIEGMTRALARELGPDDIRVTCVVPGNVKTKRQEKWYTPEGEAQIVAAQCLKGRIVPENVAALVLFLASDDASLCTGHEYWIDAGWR
# T2: 6His-tagged XylB (Caulobacter vibrioides, UniProt B8H1Z0)
# T2 construct: 6His
# T2 sequence (B8H1Z0 1-248): T1 sequence (B8H1Z0 1-248)
# T3: Strep-TEV-XylB (Caulobacter vibrioides, UniProt B8H1Z0)
# T3 construct: Strep tag; TEV cleavage site
# T3 sequence (B8H1Z0 1-248): T1 sequence (B8H1Z0 1-248)
# B1: XylB-wt2 (Caulobacter vibrioides NA1000) (protein)
# chain: T1 sequence (B8H1Z0 1-248)
# notes: made in house; host or cells: E. coli BL21(DE3)
# What was measured:
# [1] = target: T1, XylB-wt2; assay: Steady-state kinetic assays of purified XylB-wt2 for substrates and cofactor; type: biochemical, C. crescentus NA1000; details: for activity as cofactor of XylB-wt2: NAD^+ and NADP^+ both assayed, 'the first one' = NAD^+ (NADP^+ gave no activity)
# Experimental: (§1) Steady-state kinetic assays for XylB activity were measured in triplicate at 25°C in 96-well plates (total volume of 0.3 mL). Measurements of kinetic parameters for D-xylose were performed with purified XylB-wt2 at eight different D-xylose concentrations and with saturating concentration of NAD^+ (0.5 mM). […] Xylose dehydrogenase activity of purified XylB-wt2 was measured at RT and pH 8.0.
# (§2) Kinetic parameters of XylB-wt2 for the cofactor NAD^+ were also calculated.
# (§3) The calculated homohexameric quaternary structure should be considered when kinetic parameters are calculated.
# [2] = target: T2, 6His-tagged XylB; details: data taken from Stephens C, 2007; cited from earlier work
# [3] = target: T3, Strep-TEV-XylB; details: data taken from Toivari M, 2012a; pH 9.0; cited from earlier work
# [4] = target: T1, XylB-wt2; assay: Substrate specificity: XylB-wt2 activity with mono- and disaccharides (NADH formation at 340 nm); type: biochemical, C. crescentus NA1000
# Experimental: Xylose dehydrogenase activity in each CFE was evaluated. XylB catalyzes the oxidation of D-xylose with concomitant reduction of its cofactor NAD^+, to yield NADH. Activity can be determined by measuring the formation of NADH by spectrophotometric monitoring. Variations of absorbance at 340 nm are proportional to consumed D-xylose concentration in the reaction (ε^NADH = 6220 cm^-1M^-1). Activity assays were performed at RT and pH 8.0 (Figure 5). Absorbance at 340 nm (OD) was spectrophotometrically recorded along the time in the presence of each CFE sample containing expressed XylB: wt1, wt2, 6His1 and 6His2. […] Volumes of CFE samples used in the assays are shown in brackets, as well as when the sample has been diluted 10 times (dil 1/10). Slopes are proportional to enzyme activity.
# The enzyme XylB-wt2 was characterized to determine if it is possible its application in sensitive and reliable D-xylose detection and quantification. […] In order to confirm the substrate specificity, 9 different sugars (7 monosaccharides and 2 disaccharides) were assayed as XylB-wt substrates. […] XylB-wt2 specific activity measured with different mono and disaccharides.
# [5] = substrate: NC(=O)c1ccc[n+]([C@@H]2O[C@H](COP(=O)([O-])OP(=O)(O)OC[C@H]3O[C@@H](n4cnc5c(N)ncnc54)[C@H](O)[C@@H]3O)[C@@H](O)[C@H]2O)c1; assay: Steady-state kinetic assays of purified XylB-wt2 for substrates and cofactor; type: biochemical, C. crescentus NA1000; details: other: 25°C, pH 8.0, sugars with NAD^+ 0.5 mM, NAD^+ with D-xylose 5 mM
# Experimental: as §1, §2, §3
# [6] = considering the enzyme as a homohexameric protein
# [7] = sugar concentration 5 mM, relative to D-xylose
# [8] = sugar concentration 100 mM, relative to D-xylose at 5 mM
# [9] = 25°C, pH 8.0, sugars with NAD^+ 0.5 mM, NAD^+ with D-xylose 5 mM, enzyme assumed monomer
molecule,measurement,setting,value
NC(=O)c1ccc[n+]([C@@H]2O[C@H](COP(=O)([O-])OP(=O)(O)OC[C@H]3O[C@@H](n4cnc5c(N)ncnc54)[C@H](O)[C@@H]3O)[C@@H](O)[C@H]2O)c1 [NAD^+],activity as cofactor of XylB-wt2,[1],only displayed activity with the first one
same,Vmax (U·mg^-1),[1]; [6],30.1 ±1.0 U·mg^-1
same,Vmax (U·mg^-1),[2],20.5 U·mg^-1
same,Km,[3],460 ± 50 µM
same,kcat,[3],31 ± 1.08 s⁻¹
L-Arabinose,Specific Activity (U/mg),[4]; sugar concentration 5 mM,4.8 U/mg
same,Relative Activity (%),[4]; [7],16%
D-Galactose,Specific Activity (U/mg),[4]; sugar concentration 100 mM,0.5 U/mg
same,Relative Activity (%),[4]; [8],2%
D-Glucose,Specific Activity (U/mg),[4]; sugar concentration 100 mM,3.9 U/mg
same,Relative Activity (%),[4]; [8],13%
same,Vmax (U·mg^-1),[1]; [9],10.7 ±0.1 U·mg^-1
same,kcat,[1]; [9],4.78 ± 0.833 s⁻¹
same,Vmax (U·mg^-1),[1]; [6],10.7 ±0.1 U·mg^-1
NC(=O)c1ccc[n+]([C@@H]2O[C@H](COP(=O)([O-])OP(=O)(O)OC[C@H]3O[C@@H](n4cnc5c(N)ncnc54)[C@H](OP(=O)(O)O)[C@@H]3O)[C@@H](O)[C@H]2O)c1 [NADP^+],activity as cofactor of XylB-wt2,[1],only displayed activity with the first one
4-O-β-galactopyranosyl-D-xylose [Gaxilose],Specific Activity (U/mg),[4]; sugar concentration 100 mM,0.7 U/mg
same,Relative Activity (%),[4]; [8],2%
D-Ribose,Specific Activity (U/mg),[4]; sugar concentration 100 mM,4.4 U/mg
same,Relative Activity (%),[4]; [8],15%
D-Mannose,Specific Activity (U/mg),[4]; sugar concentration 100 mM,0.0 U/mg
same,Relative Activity (%),[4]; [8],0%
O=C(CO)[C@@H](O)[C@H](O)[C@H](O)CO [D-Fructose],Specific Activity (U/mg),[4]; sugar concentration 100 mM,0.0 U/mg
same,Relative Activity (%),[4]; [8],0%
OC[C@H]1O[C@H](O[C@H]2[C@H](O)[C@@H](O)C(O)O[C@@H]2CO)[C@H](O)[C@@H](O)[C@@H]1O (mixture of isomers) [Maltose],Specific Activity (U/mg),[4]; sugar concentration 100 mM,0.0 U/mg
same,Relative Activity (%),[4]; [8],0%
D-Xylose,Specific Activity (U/mg),[4]; sugar concentration 5 mM,30.0 U/mg
same,Relative Activity (%),[4]; [7],100%
same,Km,"[1]; 25°C, pH 8.0, sugars with NAD^+ 0.5 mM, NAD^+ with D-xylose 5 mM",41 ± 5 µM
same,Vmax (U·mg^-1),[1]; [9],30.2 ±1.0 U·mg^-1
same,kcat,[1]; [9],13.5 ± 0.583 s⁻¹
same,catalytic efficiencies (kcat/KM) ratio D-xylose/ D-glucose,"[1]; XylB-wt2, pH 8.0",15000
same,Km,[1]; [6],41 ± 5 µM
same,Vmax (U·mg^-1),[1]; [6],30.2 ±1.0 U·mg^-1
same,Km,[2],760 µM
same,Vmax (U·mg^-1),[2],27.5 U·mg^-1
same,Km,[3],80 ± 20 µM
same,kcat,[3],22.67 ± 1.08 s⁻¹
B1,Km,[5],78 ± 10 µM
same,Vmax,[5],30.1 ±1.0 U·mg^-1
same,kcat,[5],13.5 ± 1.08 s⁻¹
same,kcat/Km,[5],173080 M⁻¹ s⁻¹
